In patent publication US10548912B2, “Dosage regimen for a tiacumicin compound” (Astellas Pharma Europe Ltd., priority 2015, dated 2020):
Like-named read-outs stand apart in the source and are kept apart here.

Experiments:
[1] = test system: Clostridium difficile toxin A and B; experiment: Single patient cases of Examples 6 and 7, indicator-guided switch to intermittent fidaxomicin; type: in vivo, human
Experimental: (§1) A patient being tested positively for Clostridium difficile toxin A and B (using a suitable assay known in the art) and having >5 UBM per day is treated with 200 mg Fidaxomicin twice a day in an initial course of treatment. The number of UBM is monitored daily to establish if the number of UBM will change positively to ≤3 UBM per day. At day 2 of the initial course of treatment the UBM is reduced to 2 UBM per day and at day 3 to 1 UBM per day. Since the UBM is below 4 UBM per day and even below 3 UBM per day for 2 consecutive days, the dosage regimen is switched to the intermittent course of treatment by administering to the patient 200 mg Fidaxomicin every other day starting from day 5 until Clostridium difficile toxin A and B are tested negative. The presence of Clostridium difficile toxin A and B is tested negative at day 12 after start of treatment (using a suitable assay known in the art).
as §1, with “day 9 and 10” for “day 2”, “to” for “to 2 UBM per day and at day”, “3” for “3 to 1”, “4” for “4 UBM per day and even below 3”, “day 12” for “day 5”, “day 27” for “day 12”

[2] = test system: Clostridium difficile infection; conditions: Louie 2011; 200 mg Fidaxomicin twice daily or vancomycin 125 mg four times daily orally for 10 days; cited from earlier work
[3] = in vitro BCS study; low solubility, low permeability; cited from earlier work
CDI = conditions: Phase III studies, mITT analysis; cited from earlier work
[4] = test system: Clostridium difficile infection; experiment: Phase IIIb/IV randomized open-label EXTEND study (2819-MA-1002): extended fidaxomicin vs standard vancomycin; type: in vivo, human
Experimental: Fidaxomicin (FDX) is believed to reduce recurrence primarily through minimal collateral damage to colonic microflora. […] Subjects will receive 200 mg twice daily (b.i.d.) for 5 days from Day 1 to Day 5. From Day 6 to Day 25, subjects will receive 200 mg once daily on alternate days (first alternate day dose given on Day 7). This extension of the dose will allow a longer period for the protective microflora to recover and extend the period of time over which Clostridium difficile cells are suppressed, and kill any dormant spores that germinate. The extension of the dose also targets the early recurrence period documented in the phase 3 studies—the first 15 days after the end of therapy during which the majority of recurrences occurred. By covering this period this revised dosing regimen may reduce the recurrence to <10%, preferably to <5% and even more preferred to <3%. The impact on the gut microflora was limited supporting the rationale for this study.
The dosing of vancomycin (Vancocin™) to be administered in this study is in line with the SmPC for Vancocin. Subjects will receive 125 mg four times daily (q.i.d.) for 10 days from Day 1 to Day 10.
The dosage regimen was as described in Table 1 of Example 1.

[5] = oral administration; cited from earlier work
[6] = test system: Clostridium difficile infection; conditions: Cornely 2012; 200 mg Fidaxomicin twice daily or vancomycin 125 mg four times daily orally for 10 days; cited from earlier work
[7] = Day 55, extended fidaxomicin or standard vancomycin
[8] = Table 7, extended fidaxomicin regimen of Example 1 or standard vancomycin
[9] = extended fidaxomicin Day 55, standard vancomycin Day 40

CCc1c(Cl)c(O)c(Cl)c(O)c1C(=O)O[C@H]1[C@H](O)[C@H](OC)[C@H](OC/C2=C\C=C\C[C@H](O)/C(C)=C/[C@H](CC)[C@@H](O[C@@H]3OC(C)(C)[C@@H](OC(=O)C(C)C)[C@H](O)[C@@H]3O)/C(C)=C/C(C)=C/C[C@@H]([C@@H](C)O)OC2=O)O[C@@H]1C [fidaxomicin, 3-[[[6-deoxy-4-O-(3,5-dichloro-2-ethyl-4,6-dihydroxybenzoyl)-2-O-methyl-β-D-mannopyranosyl]oxy]methyl]-12(R)-[[6-deoxy-5-C-methyl-4-O-(2-methyl-1-oxopropyl)-β-D-lyxo-hexopyranosyl]oxy]-11 (S)-ethyl-8(S)-hydroxy-18(S)-(1(R)-hydroxyethyl)-9,13,15-trimethyloxacyclooctadeca-3,5,9,13,15-pentaene-2-one]
UBM per day ([1]; Example 6 patient, day 2 of initial course 200 mg twice a day, >5 UBM per day before): 2 UBM per day
UBM per day ([1]; Example 6 patient, day 3 of initial course 200 mg twice a day): 1 UBM per day
Presence of Clostridium difficile toxin A and B ([1]; Example 6 patient, day 12 after start of treatment, 200 mg every other day from day 5): negative
UBM per day ([1]; Example 7 patient, day 9 and 10 of initial course 200 mg twice a day, >5 UBM per day before): 3 UBM per day
Presence of Clostridium difficile toxin A and B ([1]; Example 7 patient, day 27 after start of treatment, 200 mg every other day from day 12): negative
Recurrence 30 days after end of treatment (%) [2]: 15.4%
Recurrence 30 days after end of treatment (patients/N) [2]: 39/253
Sustained clinical cure 30 days after end of treatment (%) [2]: 74.6%
Sustained clinical cure 30 days after end of treatment (patients/N) [2]: 214/287
BCS class [3]: Class IV
Recurrence of CDI (CDI): 14.1%
Treatment Difference in sustained clinical cure rate (Extended Fidaxomicin − Standard Vancomycin) ([4]; 30 days after end of treatment): 23.8%
OR (Odds Ratio) vs. Vancomycin, sustained clinical cure ([4]; 30 days after end of treatment, extended fidaxomicin): 3.36
% of patients with <3 Unformed bowel movements per day (UBM) ([4]; Day 1): 23%
% of patients with ≥3 Unformed bowel movements per day (UBM) ([4]; Day 1): 77.0%
% of patients with <3 Unformed bowel movements per day (UBM) ([4]; Day 2): 33.8%
% of patients with ≥3 Unformed bowel movements per day (UBM) ([4]; Day 2): 66.2%
% of patients with <3 Unformed bowel movements per day (UBM) ([4]; Day 3): 59%
% of patients with ≥3 Unformed bowel movements per day (UBM) ([4]; Day 3): 41%
% of patients with <3 Unformed bowel movements per day (UBM) ([4]; Day 4): 66.9%
% of patients with ≥3 Unformed bowel movements per day (UBM) ([4]; Day 4): 33.1%
% of patients with <3 Unformed bowel movements per day (UBM) ([4]; Day 5): 73.9%
% of patients with ≥3 Unformed bowel movements per day (UBM) ([4]; Day 5): 26.1%
% of patients with <3 Unformed bowel movements per day (UBM) ([4]; Day 6): 73.9%
% of patients with ≥3 Unformed bowel movements per day (UBM) ([4]; Day 6): 26.1%
% of patients with <3 Unformed bowel movements per day (UBM) ([4]; Day 7): 84.8%
% of patients with ≥3 Unformed bowel movements per day (UBM) ([4]; Day 7): 15.2%
% of patients with <3 Unformed bowel movements per day (UBM) ([4]; Day 8): 89.1%
% of patients with ≥3 Unformed bowel movements per day (UBM) ([4]; Day 8): 10.9%
% of patients with <3 Unformed bowel movements per day (UBM) ([4]; Day 9): 91.3%
% of patients with ≥3 Unformed bowel movements per day (UBM) ([4]; Day 9): 8.7%
% of patients with <3 Unformed bowel movements per day (UBM) ([4]; Day 10): 92.6%
% of patients with ≥3 Unformed bowel movements per day (UBM) ([4]; Day 10): 7.4%
% of patients with <3 Unformed bowel movements per day (UBM) ([4]; Day 11): 93.3%
% of patients with ≥3 Unformed bowel movements per day (UBM) ([4]; Day 11): 6.7%
% of patients with <3 Unformed bowel movements per day (UBM) ([4]; Day 12): 94.8%
% of patients with ≥3 Unformed bowel movements per day (UBM) ([4]; Day 12): 5.2%
% of patients with <3 Unformed bowel movements per day (UBM) ([4]; Day 13): 93.3%
% of patients with ≥3 Unformed bowel movements per day (UBM) ([4]; Day 13): 6.7%
% of patients with <3 Unformed bowel movements per day (UBM) ([4]; Day 14): 95.6%
% of patients with ≥3 Unformed bowel movements per day (UBM) ([4]; Day 14): 4.4%
% of patients with <3 Unformed bowel movements per day (UBM) ([4]; Day 15): 94.8%
% of patients with ≥3 Unformed bowel movements per day (UBM) ([4]; Day 15): 5.2%
% of patients with <3 Unformed bowel movements per day (UBM) ([4]; Day 16): 95.5%
% of patients with ≥3 Unformed bowel movements per day (UBM) ([4]; Day 16): 4.5%
% of patients with <3 Unformed bowel movements per day (UBM) ([4]; Day 17): 95.5%
% of patients with ≥3 Unformed bowel movements per day (UBM) ([4]; Day 17): 4.5%
% of patients with <3 Unformed bowel movements per day (UBM) ([4]; Day 18): 94.0%
% of patients with ≥3 Unformed bowel movements per day (UBM) ([4]; Day 18): 6.0%
% of patients with <3 Unformed bowel movements per day (UBM) ([4]; Day 19): 95.5%
% of patients with ≥3 Unformed bowel movements per day (UBM) ([4]; Day 19): 4.5%
% of patients with <3 Unformed bowel movements per day (UBM) ([4]; Day 20): 97.8%
% of patients with ≥3 Unformed bowel movements per day (UBM) ([4]; Day 20): 2.2%
% of patients with <3 Unformed bowel movements per day (UBM) ([4]; Day 21): 95.5%
% of patients with ≥3 Unformed bowel movements per day (UBM) ([4]; Day 21): 4.5%
% of patients with <3 Unformed bowel movements per day (UBM) ([4]; Day 22): 96.3%
% of patients with ≥3 Unformed bowel movements per day (UBM) ([4]; Day 22): 3.7%
% of patients with <3 Unformed bowel movements per day (UBM) ([4]; Day 23): 95.5%
% of patients with ≥3 Unformed bowel movements per day (UBM) ([4]; Day 23): 4.5%
% of patients with <3 Unformed bowel movements per day (UBM) ([4]; Day 24): 96.2%
% of patients with ≥3 Unformed bowel movements per day (UBM) ([4]; Day 24): 3.8%
% of patients with <3 Unformed bowel movements per day (UBM) ([4]; Day 25): 96.2%
% of patients with ≥3 Unformed bowel movements per day (UBM) ([4]; Day 25): 3.8%
% of patients with <3 Unformed bowel movements per day (UBM) ([4]; Day 26): 97.3%
% of patients with ≥3 Unformed bowel movements per day (UBM) ([4]; Day 26): 2.7%
% of patients with <3 Unformed bowel movements per day (UBM) ([4]; Day 27): 98.5%
% of patients with ≥3 Unformed bowel movements per day (UBM) ([4]; Day 27): 1.5%
Treatment Difference in recurrence rate (Extended fidaxomicin − Standard vancomycin) ([4]; Day 55): −12.6%
OR (Odds Ratio) vs. Vancomycin, recurrence of CDI ([4]; Day 55, extended fidaxomicin): 0.21
Recurrence of CDI (%) at visit 5 (Day 55) [4, 7]: (3.5) %
Recurrence of CDI at visit 5 (Day 55) (patients/N) [4, 7]: 5/142
Recurrence of CDI (%) at visit 5 (Day 55) ([4]; Day 55, extended fidaxomicin or standard vancomycin, listed as FDX): 3.5%
Recurrence 30 days after end of treatment (%) [4, 8]: 3.5%
Recurrence 30 days after end of treatment (patients/N) [4, 8]: 5/142
Sustained clinical cure (%) at 30 days after end of treatment [4, 9]: (86.7) %
Sustained clinical cure at 30 days after end of treatment (patients/N) [4, 9]: 124/143
Sustained clinical cure (%) at 30 days after end of treatment ([4]; extended fidaxomicin Day 55, standard vancomycin Day 40, listed as FDX): 86.7%
Absorption from the intestinal tract [5]: poorly absorbed
Recurrence 30 days after end of treatment (%) [6]: 12.7%
Recurrence 30 days after end of treatment (patients/N) [6]: 28/221
Sustained clinical cure 30 days after end of treatment (%) [6]: 76.6%
Sustained clinical cure 30 days after end of treatment (patients/N) [6]: 193/252
